Reference: patent publication US10550144B2, “6-aryl-9-glycosylpurines and use thereof” (UNIVERZITA PALACKEHO V OLOMOUCI, priority 2014, dated 2020)

What was measured:
[1] = system: Dais cotinifolia shoot-tip explants; experiment: Shoot multiplication and shoot-tip necrosis in shoot cultures of Dais cotinifolia; format: in vivo; details: after 8 weeks of culture
Procedure: Explants were washed thoroughly with 0.1% (v/v) of Tween® 20 for 2 min, and decontaminated with 70% ethanol for 15 sec followed by 0.2% aqueous HgCl2 for 10 min. The explants were rinsed five times with sterile distilled water. […] Each value was presented as the mean±standard error, with three replicates; each replicate consisting of 15 explants per treatment.

[2] = system: Amelanchier alnifolia nodal explants; experiment: Micropropagation growth response with BAP, Amelanchier alnifolia; details: after 35 days in vitro, N = 9
[3] = system: Gymnosporia buxifolia shoot-tip explants; experiment: Shoot-tip necrosis in in vitro cultures of Gymnosporia buxifolia; details: after 4 weeks of culture
[4] = system: Harpagophytum procumbens nodal explants; experiment: Micropropagation growth response with BAP, Harpagophytum procumbens; details: after 35 days in vitro, N = 12
[5] = system: Triticum aestivum cv. Hereward detached leaf segments; experiment: Senescence bioassay on detached wheat leaf segments (chlorophyll retention); format: in vivo; details: for maximum effective concentration: 96 h incubation in the dark at 25° C., tested 10^−8 M to 10^−4 M
Procedure: Seeds of winter wheat, Triticum aestivum cv. Hereward, were washed under running water for 24 hours and then sown on vermiculite soaked with Knop's solution. They were placed in the growth chamber at 25° C. with a 16/8 h light period at 50 μmol·m^−2·s^−1. After 7 days, the first leaf was fully developed and the second leaf had started to grow. A tip section of the first leaf, approximately 35 mm long, was removed from 5 seedlings and trimmed slightly to a combined weight of 100 mg. The basal ends of the five leaf tips were placed in the wells of a microtiter polystyrene plate containing 150 μL of the tested derivative solution each. The entire plate was inserted into a plastic box lined with paper tissues soaked in distilled water to prevent leaf sections from drying out. After 96 h incubation in the dark at 25° C., the leaves were removed and chlorophyll extracted by heating at 80° C. for 10 min in 5 mL of 80% ethanol (v/v). The sample volume was then restored to 5 mL by the addition of 80% ethanol (v/v). The absorbance of the extract was recorded at 665 nm. In addition, chlorophyll extracts from fresh leaves and leaf tips incubated in deionised water were measured. The results are means of five replicates and the entire test was repeated twice. […] The compounds to be tested were dissolved in dimethylsulfoxide (DMSO) and the solution brought up to 10^−3M with distilled water. […] The activity obtained for 10^−4 M of BAP was postulated as 100%.

[6] = 10 μM BAP alone (Treatment No. 2)

OC[C@H]1O[C@@H](n2cnc3c(NCc4ccccc4F)ncnc32)[C@@H](O)[C@@H]1O [Example 2FBAPA, 6-(2-fluorobenzylamino)-9-β-D-arabinofuranosylpurine]
Morphogenesis in vitro ([1]; 5 μM in MS medium): Pale green shoots
STN [%] (shoot-tip necrosis) ([1]; 5 μM in MS medium): 33.3 ± 0.74e %
Shoot length [cm] ([1]; 5 μM in MS medium): 1.12 ± 0.12bc cm
Shoots [explant^−1] […] ([1]; 5 μM in MS medium): 1.0 ± 0.00c explant^−1
Morphogenesis in vitro ([1]; 10 μM in MS medium): Pale green shoots
STN [%] (shoot-tip necrosis) ([1]; 10 μM in MS medium): 31.5 ± 1.18ef %
Shoot length [cm] ([1]; 10 μM in MS medium): 1.54 ± 0.16bc cm
Shoots [explant^−1] […] ([1]; 10 μM in MS medium): 1.6 ± 0.24bc explant^−1
Morphogenesis in vitro ([1]; 20 μM in MS medium): Green shoots
STN [%] (shoot-tip necrosis) ([1]; 20 μM in MS medium): 27.7 ± 0.74g %
Shoot length [cm] ([1]; 20 μM in MS medium): 1.90 ± 0.14ab cm
Shoots [explant^−1] […] ([1]; 20 μM in MS medium): 2.0 ± 0.32b explant^−1
Morphogenesis in vitro ([1]; 30 μM in MS medium): Green shoots
STN [%] (shoot-tip necrosis) ([1]; 30 μM in MS medium): 20.0 ± 0.44h %
Shoot length [cm] ([1]; 30 μM in MS medium): 2.40 ± 0.27a cm
Shoots [explant^−1] […] ([1]; 30 μM in MS medium): 2.3 ± 0.37b explant^−1
Fresh weight (g) mean SE ([2]; 5 μM compound with 10 μM BAP): 0.178 ± 0.0428 g
Shoot length (mm) mean SE ([2]; 5 μM compound with 10 μM BAP): 14.33 ± 2.754 mm
Shoot no. mean SE ([2]; 5 μM compound with 10 μM BAP): 7.2 ± 1.41
Fresh weight (g) mean SE ([2]; 10 μM compound with 10 μM BAP): 0.529 ± 0.1739 g
Shoot length (mm) mean SE ([2]; 10 μM compound with 10 μM BAP): 14.67 ± 1.291 mm
Shoot no. mean SE ([2]; 10 μM compound with 10 μM BAP): 13.2 ± 3.44
Fresh weight (g) mean SE ([2]; 20 μM compound with 10 μM BAP): 0.492 ± 0.0593 g
Shoot length (mm) mean SE ([2]; 20 μM compound with 10 μM BAP): 19.33 ± 2.571 mm
Shoot no. mean SE ([2]; 20 μM compound with 10 μM BAP): 15.4 ± 1.62
Fresh weight (g) mean SE ([2]; 30 μM compound with 10 μM BAP): 0.584 ± 0.1564 g
Shoot length (mm) mean SE ([2]; 30 μM compound with 10 μM BAP): 16.44 ± 2.369 mm
Shoot no. mean SE ([2]; 30 μM compound with 10 μM BAP): 14.9 ± 2.40
STN [%] (shoot-tip necrosis) ([3]; 5 μM in MS medium): 66.7 ± 0.32b %
Shoot length [cm] ([3]; 5 μM in MS medium): 1.02 ± 0.15bc cm
Shoots [explant^−1] […] ([3]; 5 μM in MS medium): 1.0 ± 0.0a explant^−1
STN [%] (shoot-tip necrosis) ([3]; 10 μM in MS medium): 58.0 ± 0.40c %
Shoot length [cm] ([3]; 10 μM in MS medium): 1.82 ± 0.13b cm
Shoots [explant^−1] […] ([3]; 10 μM in MS medium): 1.0 ± 0.0a explant^−1
STN [%] (shoot-tip necrosis) ([3]; 20 μM in MS medium): 42.0 ± 1.20f %
Shoot length [cm] ([3]; 20 μM in MS medium): 3.20 ± 0.17a cm
Shoots [explant^−1] […] ([3]; 20 μM in MS medium): 1.0 ± 0.0a explant^−1
STN [%] (shoot-tip necrosis) ([3]; 30 μM in MS medium): 26.6 ± 0.37h %
Shoot length [cm] ([3]; 30 μM in MS medium): 2.98 ± 0.12a cm
Shoots [explant^−1] […] ([3]; 30 μM in MS medium): 1.0 ± 0.0a explant^−1
Fresh weight (g) mean SE ([4]; 5 μM compound with 10 μM BAP): 0.8764 ± 0.1818 g
Shoot length (mm) mean SE ([4]; 5 μM compound with 10 μM BAP): 19.8 ± 3.2721 mm
Shoot no. mean SE ([4]; 5 μM compound with 10 μM BAP): 1.7 ± 0.335
Fresh weight (g) mean SE ([4]; 10 μM compound with 10 μM BAP): 0.6712 ± 0.1149 g
Shoot length (mm) mean SE ([4]; 10 μM compound with 10 μM BAP): 23.9 ± 3.195 mm
Shoot no. mean SE ([4]; 10 μM compound with 10 μM BAP): 2.5 ± 0.477
Fresh weight (g) mean SE ([4]; 20 μM compound with 10 μM BAP): 0.8935 ± 0.231 g
Shoot length (mm) mean SE ([4]; 20 μM compound with 10 μM BAP): 34.9 ± 5.608 mm
Shoot no. mean SE ([4]; 20 μM compound with 10 μM BAP): 2.8 ± 0.291
Fresh weight (g) mean SE ([4]; 30 μM compound with 10 μM BAP): 0.6877 ± 0.1009 g
Shoot length (mm) mean SE ([4]; 30 μM compound with 10 μM BAP): 23.7 ± 2.937 mm
Shoot no. mean SE ([4]; 30 μM compound with 10 μM BAP): 2.4 ± 0.267

OC[C@H]1O[C@@H](n2cnc3c(NCc4cccc(Cl)c4)ncnc32)[C@@H](O)[C@@H]1O [6-(3-chlorobenzylamino)-9-β-D-arabinofuranosylpurine]
maximum effective concentration [5]: 10^−4 mol · l^−1

c1ccc(CNc2ncnc3nc[nH]c23)cc1 [BA, 6-benzylaminopurine, reference compound]
Morphogenesis in vitro ([1]; 10 μM in MS medium): Dark green shoots + SBI
STN [%] (shoot-tip necrosis) ([1]; 10 μM in MS medium): 61.5 ± 1.02a %
Shoot length [cm] ([1]; 10 μM in MS medium): 1.52 ± 0.26bc cm
Shoots [explant^−1] […] ([1]; 10 μM in MS medium): 3.4 ± 0.37a explant^−1
Fresh weight (g) mean SE [2, 6]: 0.319 ± 0.1255 g
Shoot length (mm) mean SE [2, 6]: 17.22 ± 1.770 mm
Shoot no. mean SE [2, 6]: 7.7 ± 2.65
STN [%] (shoot-tip necrosis) ([3]; 10 μM in MS medium): 73.3 ± 0.20a %
Shoot length [cm] ([3]; 10 μM in MS medium): 1.92 ± 0.09b cm
Shoots [explant^−1] […] ([3]; 10 μM in MS medium): 1.0 ± 0.0a explant^−1
Fresh weight (g) mean SE [4, 6]: 0.3614 ± 0.05563 g
Shoot length (mm) mean SE [4, 6]: 19.4 ± 1.529 mm
Shoot no. mean SE [4, 6]: 1.5 ± 0.167

COc1ccc(CNc2ncnc3c2ncn3[C@@H]2O[C@H](CO)[C@@H](O)[C@@H]2O)cc1OC [6-(3,4-dimethoxybenzylamino)-9-β-D-arabinofuranosylpurine]
maximum effective concentration [5]: 10^−4 mol · l^−1

OC[C@H]1O[C@@H](n2cnc3c(NCc4ccc(Cl)cc4Cl)ncnc32)[C@H](O)[C@@H]1O [6-(2,4-dichlorbenzylamino)-9-riboside, reference compound]
activity (%) [10^−4 mol · l^−1 BAP = 100%] ([5]; chlorophyll content at the maximum effective concentration, 96 h in the dark): 5 ± 1%

OC[C@H]1O[C@@H](n2cnc3c(NCc4cccc(I)c4)ncnc32)[C@@H](O)[C@@H]1O [6-(3-iodobenzylamino)-9-β-D-arabinofuranosylpurine]
maximum effective concentration [5]: 10^−4 mol · l^−1

OC[C@H]1O[C@@H](n2cnc3c(NCc4cccc(Br)c4)ncnc32)[C@@H](O)[C@@H]1O [6-(3-bromobenzylamino)-9-β-D-arabinofuranosylpurine]
maximum effective concentration [5]: 10^−4 mol · l^−1

OC[C@H]1O[C@@H](n2cnc3c(NCc4cccc(F)c4)ncnc32)[C@@H](O)[C@@H]1O [6-(3-fluorobenzylamino)-9-β-D-arabinofuranosylpurine]
maximum effective concentration [5]: 10^−4 mol · l^−1

OC[C@H]1O[C@@H](n2cnc3c(NCc4ccc(Br)cc4)ncnc32)[C@@H](O)[C@@H]1O [6-(4-bromobenzylamino)-9-β-D-arabinofuranosylpurine]
maximum effective concentration [5]: 10^−4 mol · l^−1

OC[C@H]1O[C@@H](n2cnc3c(NCc4ccco4)ncnc32)[C@@H](O)[C@@H]1O [6-furfurylamino-9-β-D-arabinofuranosylpurine]
maximum effective concentration [5]: 10^−4 mol · l^−1

OC[C@H]1O[C@@H](n2cnc3c(NCc4ccccc4Br)ncnc32)[C@@H](O)[C@@H]1O [6-(2-bromobenzylamino)-9-β-D-arabinofuranosylpurine]
maximum effective concentration [5]: 10^−5 mol · l^−1
